Article PMC12373846, “Hemoglobin as a pseudoperoxidase and drug target for oxidative stress-related diseases” (Signal Transduction and Targeted Therapy, 2025)
Values joined by “and” are separate entries in the source; they are usually repeats but may differ in a detail not shown here. Equal values may be shown once. Read-outs that look alike come from different tables or passages of the source.

What was measured:
Test in all cases: SafetyScreen87 panel
[1] = molecular target: T1, AT1 (h) (antagonist radioligand) (Homo sapiens, UniProt P30556); details: 1.0E-06 M, read-out: % Inhibition of Control Specific Binding (1st, 2nd, Mean)
T1 construct: purchased DiscoverX KINOMEscan scanEDGE; Eurofins Cerep SafetyScreen87
Experimental: (§1) The possibility of KDS12025 on kinase off-target, the KINOMEscan panel of scanEDGE assay was conducted in DiscoverX (CA, USA) using a site-directed competition binding with the test compounds. The assay results are given in Supplementary Table 4 and experimental information is available on the DiscoverX web page (www.discoverx.com). Moreover, the Delta SafetyScreen87 panel assay was conducted in Eurofins Discovery (Cerep, France). The assay results are given in Supplementary Table 5 and experimental information is available on the DiscoverX web page (https://www.eurofinsdiscoveryservices.com).

[2] = molecular target: T2, Y1 (h) (agonist radioligand) (Homo sapiens, UniProt P25929); details: read-out: % Inhibition of Control Specific Binding (1st, 2nd, Mean); 1.0E-06 M
T2 construct: purchased DiscoverX KINOMEscan scanEDGE; Eurofins Cerep SafetyScreen87
Experimental: as §1

[3] = molecular target: T3, adenosine transporter (antagonist radioligand) (Cavia porcellus, UniProt H0V4R7)
T3 construct: Eurofins Discovery (Cerep, France) SafetyScreen87 panel
Experimental: as §1

[4] = molecular target: T4, N neuronal alpha 4beta 2 (h) (agonist radioligand) (Homo sapiens, UniProt P17787+P43681); details: 1.0E-06 M; mean; read-out: % Inhibition of Control Specific Binding (1st, 2nd, Mean)
T4 construct: purchased DiscoverX KINOMEscan scanEDGE; Eurofins Cerep SafetyScreen87
Experimental: as §1

[5] = system: kainate (agonist radioligand); details: 1.0E-06 M, read-out: % Inhibition of Control Specific Binding (1st, 2nd, Mean)
Experimental: as §1

[6] = molecular target: T5, ETA (h) (agonist radioligand) (Homo sapiens, UniProt P25101)
T5 construct: purchased DiscoverX KINOMEscan scanEDGE; Eurofins Cerep SafetyScreen87
Experimental: as §1

[7] = molecular target: T6, beta 1 (h) (agonist radioligand) (Homo sapiens, UniProt P08588); details: 1.0E-06 M, read-out: % Inhibition of Control Specific Binding (1st, 2nd, Mean)
T6 construct: purchased DiscoverX KINOMEscan scanEDGE; Eurofins Cerep SafetyScreen87
Experimental: as §1

[8] = molecular target: T7, M3 (h) (antagonist radioligand) (Homo sapiens, UniProt P20309); details: 1.0E-06 M; mean; read-out: % Inhibition of Control Specific Binding (1st, 2nd, Mean)
T7 construct: purchased DiscoverX KINOMEscan scanEDGE; Eurofins Cerep SafetyScreen87
Experimental: as §1

[9] = system: glycine (strychnine-sensitive) (antagonist radioligand); details: 1.0E-06 M, read-out: % Inhibition of Control Specific Binding (1st, 2nd, Mean)
Experimental: as §1

[10] = molecular target: T8, M4 (h) (antagonist radioligand) (Homo sapiens, UniProt P08173); details: 1.0E-06 M; mean; read-out: % Inhibition of Control Specific Binding (1st, 2nd, Mean)
T8 construct: purchased DiscoverX KINOMEscan scanEDGE; Eurofins Cerep SafetyScreen87
Experimental: as §1

[11] = molecular target: T9, RARalpha (h) (agonist radioligand) (Homo sapiens, UniProt P10276); details: 1.0E-06 M; read-out: % Inhibition of Control Specific Binding (1st, 2nd, Mean)
T9 construct: purchased DiscoverX KINOMEscan scanEDGE; Eurofins Cerep SafetyScreen87
Experimental: as §1

[12] = system: glycine (strychnine-insensitive) (antagonist radioligand); details: 1.0E-06 M; read-out: % Inhibition of Control Specific Binding (1st, 2nd, Mean)
Experimental: as §1

[13] = molecular target: T10, 5-HT transporter (h) (antagonist radioligand) (Homo sapiens, UniProt P31645); details: 1.0E-06 M, read-out: % Inhibition of Control Specific Binding (1st, 2nd, Mean)
T10 construct: Eurofins Discovery (Cerep, France) SafetyScreen87 panel
Experimental: as §1

[14] = system: Ca2+ channel (L, diltiazem site) (benzothiazepines) (antagonist radioligand); details: 1.0E-06 M, read-out: % Inhibition of Control Specific Binding (1st, 2nd, Mean)
Experimental: as §1

[15] = molecular target: T11, dopamine transporter (h) (antagonist radioligand) (Homo sapiens, UniProt Q01959); details: 1.0E-06 M, read-out: % Inhibition of Control Specific Binding (1st, 2nd, Mean)
T11 construct: Eurofins Discovery (Cerep, France) SafetyScreen87 panel
Experimental: as §1

[16] = molecular target: T12, B2 (h) (agonist radioligand) (Homo sapiens, UniProt P30411)
T12 construct: purchased DiscoverX KINOMEscan scanEDGE; Eurofins Cerep SafetyScreen87
Experimental: as §1

[17] = molecular target: T13, M2 (h) (antagonist radioligand) (Homo sapiens, UniProt P08172); details: 1.0E-06 M; mean; read-out: % Inhibition of Control Specific Binding (1st, 2nd, Mean)
T13 construct: purchased DiscoverX KINOMEscan scanEDGE; Eurofins Cerep SafetyScreen87
Experimental: as §1

[18] = molecular target: T14, 5-HT1B (h) (antagonist radioligand) (Homo sapiens, UniProt P28222); details: 1.0E-06 M; mean; read-out: % Inhibition of Control Specific Binding (1st, 2nd, Mean)
T14 construct: purchased DiscoverX KINOMEscan scanEDGE; Eurofins Cerep SafetyScreen87
Experimental: as §1

[19] = system: BZD (central) (agonist radioligand); details: 1.0E-06 M, read-out: % Inhibition of Control Specific Binding (1st, 2nd, Mean)
Experimental: as §1

[20] = molecular target: T15, PAF (h) (agonist radioligand) (Homo sapiens, UniProt P25105); details: 1.0E-06 M; read-out: % Inhibition of Control Specific Binding (1st, 2nd, Mean)
T15 construct: purchased DiscoverX KINOMEscan scanEDGE; Eurofins Cerep SafetyScreen87
Experimental: as §1

[21] = molecular target: T16, GABAA1 (h) (alpha 1,beta 2,gamma 2) (agonist radioligand) (Homo sapiens, UniProt P14867+P47870); details: 1.0E-06 M, read-out: % Inhibition of Control Specific Binding (1st, 2nd, Mean)
T16 construct: purchased DiscoverX KINOMEscan scanEDGE; Eurofins Cerep SafetyScreen87
Experimental: as §1

[22] = molecular target: T17, N muscle-type (h) (antagonist radioligand) (Homo sapiens, UniProt P02708+P07510+Q07001); details: 1.0E-06 M; mean; read-out: % Inhibition of Control Specific Binding (1st, 2nd, Mean)
T17 construct: purchased DiscoverX KINOMEscan scanEDGE; Eurofins Cerep SafetyScreen87
Experimental: as §1

[23] = molecular target: T18, alpha 1B (h) (antagonist radioligand) (Homo sapiens, UniProt P35368); details: 1.0E-06 M, read-out: % Inhibition of Control Specific Binding (1st, 2nd, Mean)
T18 construct: purchased DiscoverX KINOMEscan scanEDGE; Eurofins Cerep SafetyScreen87
Experimental: as §1

[24] = molecular target: T19, alpha 1A (h) (antagonist radioligand) (Homo sapiens, UniProt P35348); details: 1.0E-06 M, read-out: % Inhibition of Control Specific Binding (1st, 2nd, Mean)
T19 construct: purchased DiscoverX KINOMEscan scanEDGE; Eurofins Cerep SafetyScreen87
Experimental: as §1

[25] = molecular target: T20, mu (MOP) (h) (agonist radioligand) (Homo sapiens, UniProt P35372); details: 1.0E-06 M; mean; read-out: % Inhibition of Control Specific Binding (1st, 2nd, Mean)
T20 construct: purchased DiscoverX KINOMEscan scanEDGE; Eurofins Cerep SafetyScreen87
Experimental: as §1

[26] = molecular target: T21, alpha 2A (h) (antagonist radioligand) (Homo sapiens, UniProt P08913); details: 1.0E-06 M, read-out: % Inhibition of Control Specific Binding (1st, 2nd, Mean)
T21 construct: purchased DiscoverX KINOMEscan scanEDGE; Eurofins Cerep SafetyScreen87
Experimental: as §1

[27] = system: Na+ channel (site 2) (antagonist radioligand); details: 1.0E-06 M, read-out: % Inhibition of Control Specific Binding (1st, 2nd, Mean)
Experimental: as §1

[28] = molecular target: T22, D2S (h) (agonist radioligand) (Homo sapiens, UniProt P14416); details: 1.0E-06 M, read-out: % Inhibition of Control Specific Binding (1st, 2nd, Mean)
T22 construct: purchased DiscoverX KINOMEscan scanEDGE; Eurofins Cerep SafetyScreen87
Experimental: as §1

[29] = system: PCP (antagonist radioligand); details: 1.0E-06 M; mean; read-out: % Inhibition of Control Specific Binding (1st, 2nd, Mean)
Experimental: as §1

[30] = molecular target: T23, D1 (h) (antagonist radioligand) (Homo sapiens, UniProt P21728); details: 1.0E-06 M, read-out: % Inhibition of Control Specific Binding (1st, 2nd, Mean)
T23 construct: purchased DiscoverX KINOMEscan scanEDGE; Eurofins Cerep SafetyScreen87
Experimental: as §1

[31] = molecular target: T24, norepinephrine transporter (h) (antagonist radioligand) (Homo sapiens, UniProt P23975); details: 1.0E-06 M, read-out: % Inhibition of Control Specific Binding (1st, 2nd, Mean)
T24 construct: Eurofins Discovery (Cerep, France) SafetyScreen87 panel
Experimental: as §1

[32] = 1.0E-06 M; read-out: % Inhibition of Control Specific Binding (1st, 2nd, Mean)
[33] = read-out: % Inhibition of Control Specific Binding (1st, 2nd, Mean); 1.0E-06 M

T6 sequence (P08588 whole entry): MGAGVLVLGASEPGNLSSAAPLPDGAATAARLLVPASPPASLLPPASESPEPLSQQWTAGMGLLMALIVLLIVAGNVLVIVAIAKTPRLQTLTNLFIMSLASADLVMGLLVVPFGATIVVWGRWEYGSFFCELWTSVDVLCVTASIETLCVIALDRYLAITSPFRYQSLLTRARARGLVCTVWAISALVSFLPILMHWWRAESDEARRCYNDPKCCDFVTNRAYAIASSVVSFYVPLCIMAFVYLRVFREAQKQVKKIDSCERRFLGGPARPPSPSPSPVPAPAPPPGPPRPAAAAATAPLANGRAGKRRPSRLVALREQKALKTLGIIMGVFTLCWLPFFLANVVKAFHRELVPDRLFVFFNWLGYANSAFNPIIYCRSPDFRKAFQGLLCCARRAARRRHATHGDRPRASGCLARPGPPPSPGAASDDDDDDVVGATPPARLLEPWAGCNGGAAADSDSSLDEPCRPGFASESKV
T18 sequence (P35368 whole entry): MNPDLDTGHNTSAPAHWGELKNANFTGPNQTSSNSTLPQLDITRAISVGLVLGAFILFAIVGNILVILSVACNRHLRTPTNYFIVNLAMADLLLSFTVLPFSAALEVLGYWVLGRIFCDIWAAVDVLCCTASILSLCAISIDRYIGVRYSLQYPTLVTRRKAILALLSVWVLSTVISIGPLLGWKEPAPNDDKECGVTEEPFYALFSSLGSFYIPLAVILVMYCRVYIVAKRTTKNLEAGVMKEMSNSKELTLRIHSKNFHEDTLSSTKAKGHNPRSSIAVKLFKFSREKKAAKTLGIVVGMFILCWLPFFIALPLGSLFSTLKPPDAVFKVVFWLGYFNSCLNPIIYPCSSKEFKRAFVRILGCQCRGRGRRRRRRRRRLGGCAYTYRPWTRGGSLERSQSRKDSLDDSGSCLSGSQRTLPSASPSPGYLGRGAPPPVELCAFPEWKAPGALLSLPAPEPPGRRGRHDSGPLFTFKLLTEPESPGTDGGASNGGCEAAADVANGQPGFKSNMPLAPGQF
T21 sequence (P08913 whole entry): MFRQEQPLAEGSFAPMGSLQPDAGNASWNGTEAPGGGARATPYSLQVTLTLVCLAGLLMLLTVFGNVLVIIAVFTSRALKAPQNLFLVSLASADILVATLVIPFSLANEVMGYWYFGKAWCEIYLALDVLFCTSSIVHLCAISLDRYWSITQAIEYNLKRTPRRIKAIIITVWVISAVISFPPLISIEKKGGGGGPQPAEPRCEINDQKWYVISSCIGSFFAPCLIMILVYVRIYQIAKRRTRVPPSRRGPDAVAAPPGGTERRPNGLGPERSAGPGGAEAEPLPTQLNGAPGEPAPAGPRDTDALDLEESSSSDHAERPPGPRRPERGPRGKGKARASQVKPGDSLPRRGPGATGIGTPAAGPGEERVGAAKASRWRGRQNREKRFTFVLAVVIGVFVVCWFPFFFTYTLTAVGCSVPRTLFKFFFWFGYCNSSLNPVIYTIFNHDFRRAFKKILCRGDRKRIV
T19 sequence (P35348 whole entry): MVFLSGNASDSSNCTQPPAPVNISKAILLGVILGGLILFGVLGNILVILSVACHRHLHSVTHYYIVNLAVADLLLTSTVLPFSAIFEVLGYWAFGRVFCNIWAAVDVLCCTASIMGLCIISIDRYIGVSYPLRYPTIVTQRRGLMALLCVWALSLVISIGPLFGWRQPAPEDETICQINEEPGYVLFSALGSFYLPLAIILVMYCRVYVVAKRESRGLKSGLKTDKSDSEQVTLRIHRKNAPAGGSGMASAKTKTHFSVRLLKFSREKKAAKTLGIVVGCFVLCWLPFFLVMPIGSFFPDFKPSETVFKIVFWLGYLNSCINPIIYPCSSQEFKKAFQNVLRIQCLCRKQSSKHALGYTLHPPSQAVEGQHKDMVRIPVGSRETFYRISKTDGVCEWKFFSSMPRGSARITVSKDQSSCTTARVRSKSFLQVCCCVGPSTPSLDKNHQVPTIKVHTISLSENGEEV
T16 sequence (P14867 28-456): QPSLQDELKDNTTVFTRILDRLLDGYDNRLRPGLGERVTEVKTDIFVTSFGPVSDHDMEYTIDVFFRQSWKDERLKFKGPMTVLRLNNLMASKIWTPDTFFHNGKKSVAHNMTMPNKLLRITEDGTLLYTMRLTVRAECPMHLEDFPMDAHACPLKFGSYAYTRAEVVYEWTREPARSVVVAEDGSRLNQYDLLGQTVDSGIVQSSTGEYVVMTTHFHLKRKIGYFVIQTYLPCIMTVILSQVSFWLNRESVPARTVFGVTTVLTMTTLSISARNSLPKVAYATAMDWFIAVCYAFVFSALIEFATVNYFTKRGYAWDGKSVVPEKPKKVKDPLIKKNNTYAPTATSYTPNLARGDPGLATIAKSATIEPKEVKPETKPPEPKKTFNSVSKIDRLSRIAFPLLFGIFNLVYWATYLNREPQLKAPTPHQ
T16 sequence (P47870 25-512 limits assumed): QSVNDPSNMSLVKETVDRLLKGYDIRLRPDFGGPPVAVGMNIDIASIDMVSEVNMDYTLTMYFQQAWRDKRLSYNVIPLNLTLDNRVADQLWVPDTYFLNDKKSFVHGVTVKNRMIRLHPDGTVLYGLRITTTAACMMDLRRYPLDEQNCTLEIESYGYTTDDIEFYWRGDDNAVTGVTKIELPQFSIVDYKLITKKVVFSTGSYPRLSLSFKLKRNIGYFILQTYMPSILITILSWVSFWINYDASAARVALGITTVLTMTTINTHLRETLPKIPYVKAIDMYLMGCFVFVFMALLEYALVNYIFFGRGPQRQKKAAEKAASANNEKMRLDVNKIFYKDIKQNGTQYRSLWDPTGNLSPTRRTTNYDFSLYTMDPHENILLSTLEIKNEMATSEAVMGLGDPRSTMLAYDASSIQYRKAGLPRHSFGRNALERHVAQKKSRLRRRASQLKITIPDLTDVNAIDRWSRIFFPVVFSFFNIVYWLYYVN
T16 sequence (P18507 40-467 partner limits assumed): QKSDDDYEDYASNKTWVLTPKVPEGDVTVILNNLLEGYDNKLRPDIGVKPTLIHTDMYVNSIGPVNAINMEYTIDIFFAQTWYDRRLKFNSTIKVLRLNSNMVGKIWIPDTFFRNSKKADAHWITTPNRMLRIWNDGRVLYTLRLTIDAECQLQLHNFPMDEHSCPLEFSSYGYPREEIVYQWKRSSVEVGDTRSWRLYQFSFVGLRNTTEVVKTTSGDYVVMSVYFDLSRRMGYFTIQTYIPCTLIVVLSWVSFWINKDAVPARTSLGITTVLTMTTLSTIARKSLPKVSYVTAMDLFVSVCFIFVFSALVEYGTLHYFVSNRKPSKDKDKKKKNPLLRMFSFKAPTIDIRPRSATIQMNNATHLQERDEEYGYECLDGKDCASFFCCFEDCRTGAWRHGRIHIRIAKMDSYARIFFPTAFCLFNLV
T9 sequence (P10276 whole entry): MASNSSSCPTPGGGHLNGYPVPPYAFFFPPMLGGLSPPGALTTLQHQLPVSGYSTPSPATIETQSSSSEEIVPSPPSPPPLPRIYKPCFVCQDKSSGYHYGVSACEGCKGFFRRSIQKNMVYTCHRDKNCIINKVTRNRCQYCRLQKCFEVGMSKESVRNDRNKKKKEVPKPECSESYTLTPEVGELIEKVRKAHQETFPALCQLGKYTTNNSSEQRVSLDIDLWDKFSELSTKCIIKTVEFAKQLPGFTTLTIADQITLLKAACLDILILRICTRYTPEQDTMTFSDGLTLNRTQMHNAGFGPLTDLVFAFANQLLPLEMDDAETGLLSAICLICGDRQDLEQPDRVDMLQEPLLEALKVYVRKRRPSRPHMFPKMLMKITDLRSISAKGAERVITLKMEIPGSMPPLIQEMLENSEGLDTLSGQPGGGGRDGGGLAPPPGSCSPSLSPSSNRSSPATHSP
T11 sequence (Q01959 whole entry): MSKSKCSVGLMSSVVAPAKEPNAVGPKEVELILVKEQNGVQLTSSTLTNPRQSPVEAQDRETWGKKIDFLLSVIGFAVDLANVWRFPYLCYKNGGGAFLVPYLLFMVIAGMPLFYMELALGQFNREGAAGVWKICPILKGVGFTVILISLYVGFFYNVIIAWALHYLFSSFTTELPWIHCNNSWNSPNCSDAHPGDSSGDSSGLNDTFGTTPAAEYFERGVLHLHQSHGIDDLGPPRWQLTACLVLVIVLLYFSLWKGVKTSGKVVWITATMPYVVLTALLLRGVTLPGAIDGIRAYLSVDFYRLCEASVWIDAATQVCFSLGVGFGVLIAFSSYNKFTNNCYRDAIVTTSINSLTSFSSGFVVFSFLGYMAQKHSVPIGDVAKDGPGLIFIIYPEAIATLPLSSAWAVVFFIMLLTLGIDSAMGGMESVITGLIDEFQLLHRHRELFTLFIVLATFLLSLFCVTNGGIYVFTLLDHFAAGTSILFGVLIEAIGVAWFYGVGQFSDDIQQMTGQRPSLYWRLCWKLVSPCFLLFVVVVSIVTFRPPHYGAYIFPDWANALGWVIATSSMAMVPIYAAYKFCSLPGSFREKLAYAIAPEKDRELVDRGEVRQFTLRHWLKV
T23 sequence (P21728 whole entry): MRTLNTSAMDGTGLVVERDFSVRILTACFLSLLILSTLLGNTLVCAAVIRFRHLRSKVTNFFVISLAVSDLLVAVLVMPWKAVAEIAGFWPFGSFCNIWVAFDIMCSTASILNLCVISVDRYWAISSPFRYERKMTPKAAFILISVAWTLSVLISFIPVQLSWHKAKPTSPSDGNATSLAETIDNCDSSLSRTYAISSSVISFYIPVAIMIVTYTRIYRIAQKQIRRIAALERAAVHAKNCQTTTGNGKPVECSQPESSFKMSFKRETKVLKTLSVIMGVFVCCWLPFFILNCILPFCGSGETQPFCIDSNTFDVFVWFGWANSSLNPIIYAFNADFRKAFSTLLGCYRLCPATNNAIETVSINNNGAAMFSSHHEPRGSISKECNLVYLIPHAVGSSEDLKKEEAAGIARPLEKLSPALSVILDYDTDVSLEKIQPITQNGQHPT

CNc1ccc(NCCc2ccccc2OC)cc1.Cl [KDS12025, N^1-(2-methoxyphenethyl)-N^4-methylbenzene-1,4-diamine hydrochloride salt]
activity ([1]; mean): 87.4%
activity [1]: 82.3% and 92.5%
activity [2]: 104%
activity [3, 32]: 101%
activity [3, 33]: 98.6%
activity [4]: 98.4%
activity ([5]; mean): 97.4%
activity [5]: 76.8% and 118%
activity [6, 32]: 108%
activity [6, 33]: 90.8%
activity ([7]; mean): 90.5%
activity [7]: 86.7% and 94.3%
activity [8]: 85.5%
activity ([9]; mean): 118%
activity [9]: 117% and 118%
activity [10]: 102%
activity [11]: 105%
activity [12]: 96.8% and 100%
activity ([13]; mean): 54.6%
activity [13]: 62.9% and 46.4%
activity ([14]; mean): 84.9%
activity [14]: 88.1% and 81.7%
activity ([15]; mean): 107%
activity [15]: 102% and 111%
activity [16, 32]: 99.4%
activity [16, 33]: 104%
activity [17]: 107%
activity [18]: 90.8%
activity ([19]; mean): 99.5%
activity [19]: 102% and 96.6%
activity [20]: 106%
activity ([21]; mean): 95.1%
activity [21]: 92.4% and 97.8%
activity [22]: 74.3%
activity ([23]; mean): 65.4%
activity [23]: 61.4% and 69.4%
activity ([24]; mean): 87.1%
activity [24]: 87.6% and 86.5%
activity [25]: 84.5%
activity ([26]; mean): 86.1%
activity [26]: 86.9% and 85.4%
activity ([27]; mean): 74.5%
activity [27]: 83.6% and 65.5%
activity ([28]; mean): 61.9%
activity [28]: 64% and 59.8%
activity [29]: 92%
activity ([30]; mean): 97.5%
activity [30]: 91.1% and 104%
activity ([31]; mean): 93.3%
activity [31]: 89.5%
